Assay [1] concerns the target T1, human ETA receptors (Homo sapiens, UniProt P25101).
T1 construct: made in house; host or cells: baculovirus-infected insect cells
T1 sequence (P25101 21-427): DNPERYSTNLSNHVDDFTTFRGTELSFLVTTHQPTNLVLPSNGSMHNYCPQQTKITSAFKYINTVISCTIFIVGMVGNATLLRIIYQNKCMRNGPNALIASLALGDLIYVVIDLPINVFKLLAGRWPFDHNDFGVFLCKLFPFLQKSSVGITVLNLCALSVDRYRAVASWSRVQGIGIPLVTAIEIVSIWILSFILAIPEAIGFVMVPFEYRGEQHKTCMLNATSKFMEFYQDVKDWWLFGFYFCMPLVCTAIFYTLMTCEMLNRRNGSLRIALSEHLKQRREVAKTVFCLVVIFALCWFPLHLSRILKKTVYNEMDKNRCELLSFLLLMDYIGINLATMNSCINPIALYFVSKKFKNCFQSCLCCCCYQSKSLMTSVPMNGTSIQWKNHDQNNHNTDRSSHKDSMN
As to the kind of experiment: Inhibition of endothelin binding to recombinant ETA receptors. The following applies: 125I-endothelin, baculovirus-insect cell membranes, 20° C. 2 hours or 4° C. 24 hours. As to the method:
I, Inhibition of endothelin binding to recombinant ETA receptors
A cDNA coding for human ETA receptors of human placenta was cloned (M. Adachi, Y.-Y. Yang, Y. Furuichi and C-Miyamoto, BBRC 180, 1265-1272) and expressed in the baculovirus-insect cell system. Baculovirus-infected insect cells from a 23 I fermentor are centrifuged off (3000×g, 15 minutes, 4° C.) 60 hours after the infection, re-suspended in Tris buffer (5 mM, pH 7.4, 1 mM MgCl2) and again centrifuged. After a further re-suspension and centrifugation the cells are suspended in 800 ml of the same buffer and freeze-dried at -120° C. The cells disintegrate when the suspension in this hypotonic buffer mixture is thawed. After a repeated freeze-drying/thawing cycle the suspension is homogenized and centrifuged (25000 x g, 15 minutes, 4° C.). After suspension in Tris buffer (75 mM, pH 7.4, 25 mM MgCl2, 250 mM sucrose) 1 ml aliquots (protein content about 3.5 mg/ml) are stored at -85° C.
(§1) For the binding assay, the freeze-dried membrane preparations are thawed and, after centrifugation at 20° C. and 25000 g for 10 minutes, re-suspended in assay buffer (50 mM Tris buffer pH 7.4, containing 25 mM MnCl2, 1 mM EDTA and 0.5% bovine serum albumin). 100 μl of this membrane suspension containing 5 μg of protein are incubated with 50 μl of ^125 I-endothelin (specific activity 2200 Ci/mMol) in assay buffer (25000 cpm, final concentration 20 μM) and 100 μl of assay buffer containing varying concentrations of test compound. The incubation is carried out at 20° C. for 2 hours or at 4° C. for 24 hours. The separation of free and membrane-bound radioligands is carried out by filtration over a glass fibre filter.
(§2) The inibitory activity on ETA and ETB receptors of compounds of formula I determined in these test procedures is given in Table 1 as the IC50, i.e. as the concentration [μM] which is required to inhibit 50% of the specific binding of ^125 I-endothelin.

For assay [2], the target named is T2, ETB receptors (Homo sapiens, UniProt P24530).
T2 construct: Human placenta is homogenized in 5 mM Tris buffer; from tissue; host or cells: human placenta membranes
T2 sequence (P24530 27-442): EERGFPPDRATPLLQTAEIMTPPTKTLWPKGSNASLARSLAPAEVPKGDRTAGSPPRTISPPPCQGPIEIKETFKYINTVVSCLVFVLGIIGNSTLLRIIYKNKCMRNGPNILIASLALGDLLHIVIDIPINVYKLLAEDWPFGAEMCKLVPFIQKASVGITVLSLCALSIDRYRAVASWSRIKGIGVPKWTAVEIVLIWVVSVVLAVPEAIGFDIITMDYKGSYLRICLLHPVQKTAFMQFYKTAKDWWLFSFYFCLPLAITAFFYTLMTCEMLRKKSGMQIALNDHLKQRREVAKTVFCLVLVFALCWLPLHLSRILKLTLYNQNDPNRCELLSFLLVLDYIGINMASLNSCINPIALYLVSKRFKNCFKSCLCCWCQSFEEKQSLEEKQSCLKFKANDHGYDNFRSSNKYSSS
The assay can be described thus: Inhibition of endothelin binding to human placenta membranes (ETB receptors). The following applies: 125I-endothelin, 20° C. 2 hours or 4° C. 24 hours. As to the method: II. Inhibition of endothelin binding to human placenta membranes (ETB receptors) (see Life Sci 44:1429 (1989))
Human placenta is homogenized in 5 mM Tris buffer, pH 7.4, which contains 1 mM MgCl2 and 250 mM sucrose. The homogenizate is centrifuged at 4° C. and 3000 g for 15 minutes, the supernatant containing the plasma membrane fraction is centrifuged at 72000 g for 30 minutes and the precipitate is washed with 75 mM Tris buffer, pH 7.4, which contains 25 mM MgCl2. Thereafter, precipitate obtained from in each case 10 g of original tissue is suspended in 1 ml of 75 mM Tris buffer, pH 7.4, containing 25 mM MgCl2 and 250 mM sucrose and freeze-dried at -20° C. in 1 ml aliquots.
as §1, with “Tris buffer,” for “Tris buffer”, “containing 35” for “containing 5”, “^125 I-endotheline” for “^125 I-endothelin”, “2200 (Ci/mMol)” for “2200 Ci/mMol)”, “20 pM)” for “20 μM)”
as §2

On to `COc1cccc(Oc2c(NS(=O)(=O)c3ccc(C(C)(C)C)cc3)nc(C(=O)Nc3ccccc3)nc2OCCO)c1` [Example 6, 6-(4-tert.butyl-phenylsulphonylamino)-4-(2-hydroxy-ethoxy)-5-(3-methoxy-phenoxy)-pyrimidine-2-carboxylic acid phenylamide], for which, in assay [1], the IC50 (as a rule, the concentration at which inhibition is half-maximal) is 38 µM.
`COc1ccccc1Oc1c(NS(=O)(=O)c2ccc(C(C)(C)C)cc2)nc(C(=O)Nc2ccccc2)nc1OCCO` [Example 8, 6-(4-tert.Butyl-phenylsulphonylamino)-5-(2-methoxy-phenoxy)-4-(2-hydroxy-ethoxy)-pyrimidine-2-carboxylic acid phenylamide]: the IC50 worked out at 0.06 µM in assay [2] and 13 µM in assay [1].
Consider `COc1ccc(Cl)c(Oc2c(NS(=O)(=O)c3ccc(C(C)(C)C)cc3)nc(C(=O)O)nc2OCCO)c1` [Example 2, 4-(4-tert.Butyl-phenylsulphonylamino)-5-(2-chloro-5-methoxy-phenoxy)-6-(2-hydroxy-ethoxy)-pyrimidine-2-carboxylic acid], for which the IC50 in assay [1] was found to be 1.83 µM.
For `COc1cccc(Oc2c(NS(=O)(=O)c3ccc(C(C)(C)C)cc3)nc(C(=O)O)nc2OCCO)c1` [Example 1, 6-(4-tert.butyl-phenylsulphonylamino)-4-(2-hydroxy-ethoxy)-5-(3-methoxy-phenoxy)-pyrimidine-2-carboxylic acid], the results for the half-inhibitory concentration (IC50) in assay [2] and in assay [1] were 0.08 µM and 73 µM, respectively.
For the compound `COc1ccc(Cl)c(Oc2c(NS(=O)(=O)c3ccc(C(C)(C)C)cc3)nc(C(=O)Nc3ccccc3)nc2OCCO)c1` [Example 9, 4-(4-tert.Butyl-phenylsulphonylamino)-5-(2-chloro-5-methoxy-phenoxy)-6-(2-hydroxy-ethoxy)-pyrimidine-2-carboxylic acid phenylamide], the concentration for half-maximal inhibition (IC50) in assay [2] amounted to 0.086 µM; in assay [1], 21.4 µM.
Regarding `COc1cccc(Oc2c(NS(=O)(=O)c3ccc(C(C)(C)C)cc3)nc(C(=O)Nc3nnn[nH]3)nc2OCCO)c1` [Example 10, 4-(4-tert.Butyl-phenylsulphonylamino)-6-(2-hydroxy-ethoxy)-5-(3-methoxy-phenoxy)-pyrimidine-2-carboxylic acid (1 H-tetrazol-5-yl)-amide], the IC50 was determined as 0.14 µM in assay [2] and 13 µM in assay [1].
For `COc1ccc(S(=O)(=O)Nc2nc(C(=O)Nc3ccccc3)nc(OCCO)c2Oc2cccc(OC)c2)cc1` [Example 7, 4-(2-Hydroxy-ethoxy)-5-(3-methoxy-phenoxy)-6-(4-methoxy-phenylsulphonylamino)-pyrimidine-2-carboxylic acid phenylamide], the IC50 in assay [2] was 0.3 µM; in assay [1], 18.2 µM.
Consider `COc1ccccc1Oc1c(NS(=O)(=O)c2ccc(C(C)(C)C)cc2)nc(C(=O)O)nc1OCCO` [Example 5, 6-(4-tert.butyl-phenylsulphonylamino)-4-(2-hydroxy-ethoxy)-5-(2-methoxy-phenoxy)-pyrimidine-2-carboxylic acid], for which the IC50 in assay [2] was determined as 0.29 µM; in assay [1], 16.4 µM.

Source of the values: patent US5856484A, “Sulfonylaminopyrimidine carboxylic acid derivatives having endothelin inhibiting activity” (Hoffmann-La Roche Inc., priority 1995, dated 1999).
